ChEMBL document CHEMBL3232855, “The discovery of N-((2H-tetrazol-5-yl)methyl)-4-((R)-1-((5r,8R)-8-(tert-butyl)-3-(3,5-dichlorophenyl)-2-oxo-1,4-diazaspiro[4.5]dec-3-en-1-yl)-4,4-dimethylpentyl)benzamide (SCH 900822): a potent and selective glucagon receptor antagonist” (J Med Chem, 2014)
pIC50, pKi: −log10 of the molar value. Active and inactive are the calls of the source. No cut-off for these calls is given here.

How the values were obtained:
[1] = biological target: Kappa-type opioid receptor (Homo sapiens) (UniProt P41145); assay: Binding affinity to kappa opioid receptor (unknown origin) at 10 uM by agonist displacement assay relative to control
Glucagon receptor [2] = biological target: T1, Glucagon receptor (Homo sapiens, UniProt P47871); assay: Antagonist activity at human GCGR expressed in CHO cells assessed as inhibition of glucagon-stimulated cAMP production preincubated for 30 mins followed by glucagon induction measured after 45 mins by LANCE assay; type: functional, cell-based
Glucagon receptor [3] = biological target: T1, Glucagon receptor; assay: biochemical; type: cell-based, CHO
Description: Displacement of [125I]-glucagon from recombinant human GCGR expressed in CHO cells after 60 mins by scintillation counting analysis

[4] = Plasma clearance in mouse at 3 mg/kg, iv; type: ADME, organism-based; parameters: dose 3 mg/kg, route intravenous
[5] = Plasma clearance in rat at 3 mg/kg, iv; type: ADME, organism-based; parameters: dose 3 mg/kg, route intravenous
[6] = Plasma clearance in dog at 1 mg/kg, iv; type: ADME, organism-based, Canis lupus familiaris; parameters: dose 1 mg/kg, route intravenous
[7] = Plasma clearance in monkey at 3 mg/kg, iv; type: ADME, organism-based, Macaca mulatta; parameters: dose 3 mg/kg, route intravenous; conditions: rhesus monkey
[8] = Volume of distribution at steady state in rat at 3 mg/kg, iv; type: ADME, organism-based; parameters: dose 3 mg/kg, route intravenous; conditions: in vivo, read-out: Vdss
[9] = Volume of distribution at steady state in dog at 1 mg/kg, iv; type: ADME, organism-based, Canis lupus familiaris; parameters: dose 1 mg/kg, route intravenous; conditions: in vivo, read-out: Vdss
[10] = Volume of distribution at steady state in monkey at 3 mg/kg, iv; type: ADME, organism-based, Macaca mulatta; parameters: dose 3 mg/kg, route intravenous; conditions: rhesus monkey, in vivo, read-out: Vdss
[11] = Half life in mouse at 3 mg/kg, iv; type: ADME, organism-based; parameters: dose 3 mg/kg, route intravenous; conditions: in vivo
[12] = Half life in rat at 3 mg/kg, iv; type: ADME, organism-based; parameters: dose 3 mg/kg, route intravenous; conditions: in vivo
[13] = Half life in dog at 1 mg/kg, iv; type: ADME, organism-based, Canis lupus familiaris; parameters: dose 1 mg/kg, route intravenous; conditions: in vivo
[14] = Half life in monkey at 3 mg/kg, iv; type: ADME, organism-based, Macaca mulatta; parameters: dose 3 mg/kg, route intravenous; conditions: rhesus monkey, in vivo
Mus musculus [15] = assay: Dose-normalized AUC in mouse at 3 mg/kg, po; type: ADME, organism-based; parameters: dose 3 mg/kg, route oral; conditions: in vivo
Rattus norvegicus = assay: Dose-normalized AUC in rat at 3 mg/kg, po; type: ADME, organism-based; parameters: dose 3 mg/kg, route oral; conditions: in vivo
Canis familiaris = assay: Dose-normalized AUC in dog at 5 mg/kg, po; type: ADME, organism-based, Canis lupus familiaris; parameters: dose 5 mg/kg, route oral; conditions: in vivo
Rhesus monkey = assay: Dose-normalized AUC in monkey at 3 mg/kg, po; type: ADME, organism-based, Macaca mulatta; parameters: dose 3 mg/kg, route oral; conditions: in vivo
[16] = Oral bioavailability in mouse at 3 mg/kg; type: ADME, organism-based; conditions: in vivo
[17] = Oral bioavailability in dog at 5 mg/kg; type: ADME, organism-based, Canis lupus familiaris; conditions: in vivo
[18] = Oral bioavailability in monkey at 3 mg/kg; type: ADME, organism-based, Macaca mulatta; conditions: rhesus monkey, in vivo
Adenosine receptor A3 = biological target: T2, Adenosine receptor A3 (Homo sapiens, UniProt P0DMS8); assay: Binding affinity to adenosine A3 receptor (unknown origin) by agonist displacement assay
T2 sequence (P0DMS8 whole entry): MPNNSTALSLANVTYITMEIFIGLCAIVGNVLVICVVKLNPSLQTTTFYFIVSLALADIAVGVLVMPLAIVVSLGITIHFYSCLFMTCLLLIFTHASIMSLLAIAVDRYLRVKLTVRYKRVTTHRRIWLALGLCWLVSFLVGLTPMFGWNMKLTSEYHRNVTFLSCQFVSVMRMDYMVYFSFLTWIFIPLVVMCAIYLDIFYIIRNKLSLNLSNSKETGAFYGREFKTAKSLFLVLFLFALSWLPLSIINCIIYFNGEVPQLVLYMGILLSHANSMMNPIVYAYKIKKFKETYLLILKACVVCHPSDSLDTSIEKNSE

[19] = biological target: T3, Vasoactive intestinal polypeptide receptor 1 (Homo sapiens) (UniProt P32241); assay: Binding affinity to VIP-1 receptor (unknown origin) at 10 uM by agonist displacement assay relative to control
T3 sequence (whole entry): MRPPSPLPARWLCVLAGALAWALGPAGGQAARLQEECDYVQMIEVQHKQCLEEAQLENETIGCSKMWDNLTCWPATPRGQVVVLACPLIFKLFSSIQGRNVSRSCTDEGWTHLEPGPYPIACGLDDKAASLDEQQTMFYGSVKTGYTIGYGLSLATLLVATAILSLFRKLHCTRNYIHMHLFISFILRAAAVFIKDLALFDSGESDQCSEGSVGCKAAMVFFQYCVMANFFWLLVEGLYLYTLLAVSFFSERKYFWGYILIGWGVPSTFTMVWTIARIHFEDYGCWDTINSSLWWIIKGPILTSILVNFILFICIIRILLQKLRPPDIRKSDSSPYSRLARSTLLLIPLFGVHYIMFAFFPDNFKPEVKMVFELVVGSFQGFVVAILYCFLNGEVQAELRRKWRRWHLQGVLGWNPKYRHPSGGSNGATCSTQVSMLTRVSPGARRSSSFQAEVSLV

[20] = biological target: T4, Gastric inhibitory polypeptide receptor (Homo sapiens, UniProt P48546); assay: Antagonist activity at human GIPR assessed as inhibition of cAMP production; type: functional
T4 sequence (P48546 whole entry): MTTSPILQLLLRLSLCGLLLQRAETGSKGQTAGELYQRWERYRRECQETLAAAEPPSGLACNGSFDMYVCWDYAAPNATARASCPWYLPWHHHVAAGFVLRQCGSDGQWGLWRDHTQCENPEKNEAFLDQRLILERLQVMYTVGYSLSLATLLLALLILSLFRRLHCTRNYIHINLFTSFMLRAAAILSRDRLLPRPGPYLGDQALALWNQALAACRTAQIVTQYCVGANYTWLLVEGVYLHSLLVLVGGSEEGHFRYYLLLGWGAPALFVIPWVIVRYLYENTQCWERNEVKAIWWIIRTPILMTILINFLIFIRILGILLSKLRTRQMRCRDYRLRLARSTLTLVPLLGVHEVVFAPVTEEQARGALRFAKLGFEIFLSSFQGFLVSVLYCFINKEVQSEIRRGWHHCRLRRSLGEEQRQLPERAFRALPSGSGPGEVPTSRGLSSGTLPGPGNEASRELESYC

Mus musculus [21] = assay: Antidiabetic activity in diet-induced obese ICR mouse model assessed as decrease in nonfasting blood glucose level at 3 to 10 mg/kg, po measured at 24 hrs by glucometer; type: functional, organism-based
[22] = Plasma concentration in diet-induced obese ICR mouse model at 3 mg/kg, po measured at 24 hrs by HPLC/MS/MS analysis; type: ADME, organism-based; parameters: dose 3 mg/kg, route oral
[23] = Plasma concentration in diet-induced obese ICR mouse model at 10 mg/kg, po measured at 24 hrs by HPLC/MS/MS analysis; type: ADME, organism-based; parameters: dose 10 mg/kg, route oral
Mus musculus [24] = assay: Antidiabetic activity in streptozotocin-induced ICR mouse type-2 diabetic model assessed as decrease in fasting blood glucose level at 30 mg/kg, po measured at 8 hrs by glucometer relative to vehicle-treated control; type: functional, organism-based; parameters: dose 30 mg/kg
[25] = Plasma concentration in streptozotocin-induced ICR mouse type-2 diabetic model at 3 mg/kg, po measured at 8 hrs by HPLC/MS/MS analysis; type: ADME, organism-based; parameters: dose 3 mg/kg, route oral
[26] = Plasma concentration in streptozotocin-induced ICR mouse type-2 diabetic model at 10 mg/kg, po measured at 8 hrs by HPLC/MS/MS analysis; type: ADME, organism-based; parameters: dose 10 mg/kg, route oral
Mus musculus [27] = assay: Toxicity in streptozotocin-induced ICR mouse type-2 diabetic model assessed as effect on body weight at 3 to 30 mg/kg, po after 24 hrs; type: organism-based; parameters: dose 3-30 mg/kg, route oral; conditions: in vivo
Mus musculus [28] = assay: Antidiabetic activity in diet-induced obese ICR mouse model assessed as inhibition of glucagon-induced glucose excursion at 10 to 30 mg/kg, po bid measured for 60 mins by glucometer; type: functional, organism-based
[29] = biological target: T5, Adenosine receptor A3 (Homo sapiens) (UniProt P0DMS8); conditions: 10 uM
T5 sequence (whole entry): T2 sequence (P0DMS8 whole entry)
Description: Binding affinity to adenosine A3 receptor (unknown origin) at 10 uM by agonist displacement assay relative to control

T1 sequence (P47871 whole entry): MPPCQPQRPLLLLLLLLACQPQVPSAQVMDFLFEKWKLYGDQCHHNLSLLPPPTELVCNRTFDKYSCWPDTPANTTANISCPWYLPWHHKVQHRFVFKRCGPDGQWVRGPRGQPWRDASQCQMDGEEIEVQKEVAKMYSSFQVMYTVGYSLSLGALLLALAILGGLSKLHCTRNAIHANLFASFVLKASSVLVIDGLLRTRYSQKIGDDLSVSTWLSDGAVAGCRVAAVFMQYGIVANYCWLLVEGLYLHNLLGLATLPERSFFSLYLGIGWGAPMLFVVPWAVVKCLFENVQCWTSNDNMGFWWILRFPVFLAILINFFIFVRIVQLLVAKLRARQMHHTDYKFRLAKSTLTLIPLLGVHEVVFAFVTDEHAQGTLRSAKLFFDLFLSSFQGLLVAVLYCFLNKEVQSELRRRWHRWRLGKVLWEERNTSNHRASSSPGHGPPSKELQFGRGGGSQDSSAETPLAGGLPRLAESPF
Kappa-type opioid receptor (Homo sapiens), sequence (P41145 whole entry): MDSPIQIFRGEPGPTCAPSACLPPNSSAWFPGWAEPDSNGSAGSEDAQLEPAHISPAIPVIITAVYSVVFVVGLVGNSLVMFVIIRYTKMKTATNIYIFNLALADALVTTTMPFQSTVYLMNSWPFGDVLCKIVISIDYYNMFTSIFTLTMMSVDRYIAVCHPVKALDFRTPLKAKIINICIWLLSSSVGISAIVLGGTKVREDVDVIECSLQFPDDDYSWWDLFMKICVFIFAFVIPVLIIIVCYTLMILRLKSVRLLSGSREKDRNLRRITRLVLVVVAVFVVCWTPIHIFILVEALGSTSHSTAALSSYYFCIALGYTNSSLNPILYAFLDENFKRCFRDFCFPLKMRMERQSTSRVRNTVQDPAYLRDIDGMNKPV

CC(C)(C)CC[C@H](c1ccc(C(=O)NCc2nn[nH]n2)cc1)N1C(=O)C(c2cc(Cl)cc(Cl)c2)=N[C@]12CC[C@@H](C(C)(C)C)CC2
inhibition [1]: 75%
pIC50 (Glucagon receptor [2]): 7.34
pIC50 (Glucagon receptor [3]): 7.62
clearance [4]: 1.4 mL/min/kg
clearance [5]: 1.8 mL/min/kg
clearance [6]: 0.3 mL/min/kg
clearance [7]: 0.6 mL/min/kg
Vd [8]: 1.3 L/kg
Vd [9]: 0.1 L/kg
Vd [10]: 0.4 L/kg
half-life [11]: 11 h
half-life [12]: 8.3 h
half-life [13]: 6.1 h
half-life [14]: 7.9 h
AUC/dose (Mus musculus [15]): 6 µM·h/mg/kg
AUC/dose (Rattus norvegicus): 2.2 µM·h/mg/kg
AUC/dose (Canis familiaris): 30 µM·h/mg/kg
AUC/dose (Rhesus monkey): 22 µM·h/mg/kg
bioavailability [16]: 31%
bioavailability [17]: 32%
bioavailability [18]: 49%
pKi (Adenosine receptor A3): 5.61
inhibition [19]: 75%
pIC50 [20]: 5.68
Activity (Mus musculus [21]): Active
concentration at 24 h [22]: 430 nM
concentration at 24 h [23]: 810 nM
Activity (Mus musculus [24]): Active
concentration at 8 h [25]: 1100 nM
concentration at 8 h [26]: 4500 nM
Activity (Mus musculus [27]): Non-toxic
inhibition (Mus musculus [28]): Active
inhibition [29]: 96%
